Measurements from patent US10709788B2, “Chitosan magnetic particle drug carrier, drug structure, and method of making” (GENE'E TECH CO., LTD., priority 2018, dated 2020).
In brackets after ≈: the same amount, converted by molar mass. Like-named read-outs stand apart in the source and are kept apart here.

Experiments:
H. pylori [1] = experiment: minimum inhibitory concentrations (MIC) for seven strains of H. pylori; assay type: cell-based; conditions: Helicobacter pylori, read-out: minimum inhibitory concentration (MIC)
H. pylori [2] = experiment: Test of inhibition of H. pylori by drug structure (OD 450 nm, bacterial inhibition rate); assay type: cell-based; conditions: seven strains; added at minimum inhibitory concentration; 37° C., anaerobic, 48 hours
Method: First, bacterial fluids of seven different strains of H. pylori are provided. […] The bacterial fluids of the seven different strains of H. pylori are placed in four 15 ml microcentrifuge tubes, respectively. Each microcentrifuge tube contains 5 ml of H. pylori bacterial fluid. The four microcentrifuge tubes are defined as experimental group 1, experimental group 2, experimental group 3 and control group, respectively. Then, amoxicillin of the minimum inhibitory concentration is added to experimental group 1 of each strain of H. pylori, sample 3 (i.e., drug carrier) of the minimum inhibitory concentration is added to experimental group 2 of each strain of H. pylori, sample C (i.e., drug structure) of amoxicillin of the minimum inhibitory concentration is added to experimental group 3 of each strain of H. pylori, and nothing is added to the control group. Afterward, experimental groups 1-3 and control group of each strain of H. pylori are placed in an incubator to be cultured therein at 37° C., in an anaerobic environment, and for 48 hours. At the end of the 48-hour culturing process, bacterial fluids are extracted from the experimental groups 1-3 and control group of the strains of H. pylori, respectively. OD values of the bacterial fluid of the experimental groups and the bacterial fluid of the control group are measured with a spectrophotometer at a wavelength of 450 nm. […]

SMILES: CC1(C)S[C@@H]2[C@H](NC(=O)[C@H](N)c3ccc(O)cc3)C(=O)N2[C@H]1C(=O)O [amoxicillin]
- MIC (H. pylori [1]; H. pylori strain NO. 125-54): 0.5 µg/mL (≈ 1.37 µM)
- MIC (H. pylori [1]; H. pylori strain NO. 125-56): 0.25 µg/mL (≈ 0.684 µM)
- MIC (H. pylori [1]; H. pylori strain NO. 125-57): 0.25 µg/mL (≈ 0.684 µM)
- MIC (H. pylori [1]; H. pylori strain NO. 126-6): 0.016 µg/mL (≈ 0.0438 µM)
- MIC (H. pylori [1]; H. pylori strain NO. 127-4): 0.0625 µg/mL (≈ 0.171 µM)
- MIC (H. pylori [1]; H. pylori strain NO. 127-9): 0.0625 µg/mL (≈ 0.171 µM)
- MIC (H. pylori [1]; H. pylori strain NO. 127-10): 0.125 µg/mL (≈ 0.342 µM)
- inhibitory effect on H. pylori (H. pylori [2]): different degrees of inhibition efficacy
